Laboratory results: the NIST ThermoML archive (doi:10.1021/acs.jced.5b01057)

Legend:
[1] = Crystal; visual observation
[2] = mn = molality of the nth substance listed, in mol/kg; conditions: for surface tension liquid-gas: Pendant drop shape; for electrical conductivity: 100 kPa, Liquid, Alternating current cell with electrodes

CCCCCCCCCCCCNC1O[C@H](CO)[C@@H](O[C@@H]2O[C@H](CO)[C@H](O)[C@H](O)[C@H]2O)[C@H](O)[C@H]1O (some centres not stated) [N-dodecyllactosylamine]
Conditions	Triple point temperature [K]
[1]	398.65

CCCCCCCCCCCC[NH2+]C1O[C@H](CO)[C@@H](O[C@@H]2O[C@H](CO)[C@H](O)[C@H](O)[C@H]2O)[C@H](O)[C@H]1O.CCCCCCCCCCCC[NH2+]C1O[C@H](CO)[C@@H](O[C@@H]2O[C@H](CO)[C@H](O)[C@H](O)[C@H]2O)[C@H](O)[C@H]1O.O=C([O-])CCCCC(=O)[O-] (some centres not stated) [N-dodecyllactosylammonium hexanedioate] + O
[2]
Conditions	electrical conductivity [S/m]	surface tension liquid-gas [mN/m]
298.15 K, m1 = 0.0005	–	65.42
298.15 K, m1 = 0.001	–	57.54
298.15 K, m1 = 0.0015	–	52.44
298.15 K, m1 = 0.00159	0.00604	–
298.15 K, m1 = 0.002	–	48.72
298.15 K, m1 = 0.0025	–	46.11
298.15 K, m1 = 0.003	–	43.65
298.15 K, m1 = 0.00317	0.0113	–
298.15 K, m1 = 0.00396	0.0137	–
298.15 K, m1 = 0.004	–	39.6
298.15 K, m1 = 0.00474	0.0159	–
298.15 K, m1 = 0.005	–	36.39
298.15 K, m1 = 0.00552	0.0182	–
298.15 K, m1 = 0.006	–	34.24
298.15 K, m1 = 0.0063	0.0212	–
298.15 K, m1 = 0.007	–	33.1
298.15 K, m1 = 0.00707	0.023	–
323.15 K, m1 = 0.0004	–	62.97
323.15 K, m1 = 0.0006	–	58.09
323.15 K, m1 = 0.001	–	52.58
323.15 K, m1 = 0.0014	–	47.88
323.15 K, m1 = 0.00159	0.00898	–
323.15 K, m1 = 0.002	–	43.86
323.15 K, m1 = 0.0024	–	41.18
323.15 K, m1 = 0.003	–	38.37
323.15 K, m1 = 0.00317	0.0165	–
323.15 K, m1 = 0.004	–	35.16
323.15 K, m1 = 0.00474	0.0258	–
323.15 K, m1 = 0.005	–	32.73
323.15 K, m1 = 0.0063	0.0334	–

CCCCCC(=O)[O-].CCCCCCCCCCCC[NH2+]C1O[C@H](CO)[C@@H](O[C@@H]2O[C@H](CO)[C@H](O)[C@H](O)[C@H]2O)[C@H](O)[C@H]1O (some centres not stated) [N-dodecyllactosylammonium hexanoate] + O
[2], 323.15 K
Conditions	electrical conductivity [S/m]	surface tension liquid-gas [mN/m]
m1 = 0.4	0.001851	58.74
m1 = 0.6	–	52.11
m1 = 0.79	0.00335	–
m1 = 0.8	–	48.69
m1 = 1	–	45.57
m1 = 1.19	0.0048	–
m1 = 1.57	0.00609	–
m1 = 1.6	–	37.41
m1 = 1.96	0.00734	–
m1 = 2	–	34.64
m1 = 2.34	0.00864	–
m1 = 2.4	–	32.22
m1 = 2.72	0.00986	–
m1 = 3	–	30.32
m1 = 3.1	0.01083	–
